Entries after “also recorded” stand apart in the source; their conditions may differ.
What was measured:
Assay type in all cases: biochemical, Bacillus sectorramus
α-1,6-glucosidase [1] = test: Influence of metal salt on enzyme activity; conditions: for Remaining activity (%): 50 mM acetic acid buffer (pH 4.5), 30 minutes at 40° C., final concentration of metal salt 5 mM; for Influence of metal salts: metal salt 5 mM
Experimental: (§1) 8. Assay of activity: 4 ml of 0.5% pullulan solution (pH 4.5) was added to 1 ml of an enzyme solution, and the reaction was carried out for 30 minutes at 40° C. Then, 2 ml of Somogyi solution was added, the mixture was heated for 20 minutes and then cooled. After cooling, 1 ml of ammonium arsenomolybdenate was added, and water was added to a total volume of 25 ml. Absorbance of this solution was measured at 500 nm, with a layer thickness of 1 cm. Under these conditions, the activity was defined as one unit when reducing sugar corresponding to 1 μmol of glucose was produced per minute.
10. […] Influences of various metal salts are shown in Table 5, indicating the remaining activity after treatment in a 50 mM acetic acid buffer (pH 4.5) for 30 minutes at 40° C., with a final concentration of metal salt of 5 mM.

α-1,6-glucosidase [2] = test: Influence of inhibitor on enzyme activity
Experimental: as §1

α-1,6-glucosidase [3] = test: Relative activity to polysaccharides (substrate specificity); conditions: activity of the enzyme on the polysaccharide, pullulan = 100
Experimental: 3. Relative activity to polysaccharides: Table 3 compares the relative activity of the enzyme on pullulan to relative activity on soluble maize amylopectin, soluble starch, oyster glycogen, hare glycogen, maize amylopectin, and potato amylopectin.
as §1

α-1,6-glucosidase [4] = test: Km value and Vmax to substrates; conditions: substrate of the purified enzyme
Description: After the cultivation period, the cells were removed from the culture broth, and the supernatant fraction thus obtained was concentrated to obtain a preparation of crude pullulanase. This preparation was fractionated with ammonium sulfate, then subjected to affinity chromatography with γ-cyclodextrin-cephalose 6B (produced by coupling γ-cyclodextrin to activated Sepharose 6B (trade mark, Pharmacia Fine Chemical Co.)) and purified to a single band by electrophoresis utilizing SDS-polyacrylamide gel. The following explains the enzymochemical properties of the α-1,6-glucosidase thus purified.
2. Km value and Vmax to substrates: The Km value (mg/ml) and Vmax value (μmol/min/mg protein) of the enzyme to pullulan, potato amylopectin, and corn amylopectin are as shown in Table 2:
as §1

[5] = 50 mM acetic acid buffer (pH 4.5), 30 minutes at 40° C., final concentration of inhibitor 1 mM

[Cl-].[Cl-].[Zn+2] [ZnCl2]
Remaining activity (%) (α-1,6-glucosidase [1]): 97.3%
Influence of metal salts (α-1,6-glucosidase [1]): negligibly affected

[Ca+2].[Cl-].[Cl-] [CaCl2]
Remaining activity (%) (α-1,6-glucosidase [1]): 79.1%

O.O.O.O.[Cl][Mn][Cl] [MnCl2.4H2 O]
Remaining activity (%) (α-1,6-glucosidase [1]): 85.9%
Influence of metal salts (α-1,6-glucosidase [1]): negligibly affected

O=C(O)c1cc[c]([Hg][Cl])cc1 [PCMB, p-chloromercuribenzoic acid]
Remaining activity (%) (α-1,6-glucosidase [2]; [5]): 27.1%

[Ba+2].[Cl-].[Cl-] [BaCl2]
Remaining activity (%) (α-1,6-glucosidase [1]): 98.9%
Influence of metal salts (α-1,6-glucosidase [1]): negligibly affected

[Cl-].[Cl-].[Sr+2] [SrCl2]
Remaining activity (%) (α-1,6-glucosidase [1]): 74.5%

CCCCCCCCCCCCOS(=O)(=O)[O-].[Na+] [SDS, sodium dodecylsulfate]
Remaining activity (%) (α-1,6-glucosidase [2]; [5]): 1.5%

O.O.[Cl][Sn][Cl] [SnCl2.2H2 O]
Remaining activity (%) (α-1,6-glucosidase [1]): 82.1%

O=C(O)CI [Monoiodo-acetic acid]
Remaining activity (%) (α-1,6-glucosidase [2]; pH 4.5): 66.5%

[Cl][Fe][Cl] [FeCl2.nH2 O]
Remaining activity (%) (α-1,6-glucosidase [1]): 82.1%

Soluble starch
Relative activity (%) (α-1,6-glucosidase [3]): 6.7%

c1cnc2c(c1)ccc1cccnc12 [o-phenanthroline]
Remaining activity (%) (α-1,6-glucosidase [2]; [5]): 109.0%
Influence of inhibitor (α-1,6-glucosidase [2]; inhibitor 1 mM): not and not inhibited

Cl.Cl.[Ag] [AgCl2]
Remaining activity (%) (α-1,6-glucosidase [1]): 2.7%
Influence of metal salts (α-1,6-glucosidase [1]; listed as Ag^2+): deactivated; also recorded: losses activity

[Cl][Hg][Cl] [HgCl2]
Remaining activity (%) (α-1,6-glucosidase [1]): 0%
Influence of metal salts (α-1,6-glucosidase [1]; listed as Hg^2+): deactivated; also recorded: losses activity

O=C(O)CN(CCN(CC(=O)O)CC(=O)O)CC(=O)O [EDTA]
Remaining activity (%) (α-1,6-glucosidase [2]; pH 4.5): 93.1%

[Cl][Fe]([Cl])[Cl] [FeCl3]
Remaining activity (%) (α-1,6-glucosidase [1]): 57.8%
Influence of metal salts (α-1,6-glucosidase [1]): inhibited

CCN1C(=O)C=CC1=O [N--ethylmaleimide]
Remaining activity (%) (α-1,6-glucosidase [2]; [5]): 65.5%

O.O.[Cl][Cu][Cl] [CuCl2.2H2 O]
Remaining activity (%) (α-1,6-glucosidase [1]): 73.4%

O.O.O.O.O.O.[Cl-].[Cl-].[Mg+2] [MgCl2.6H2 O]
Remaining activity (%) (α-1,6-glucosidase [1]): 91.3%

O.O.O.O.O.O.[Cl][Ni][Cl] [NiCl2.6H2 O]
Remaining activity (%) (α-1,6-glucosidase [1]): 102.7%
Influence of metal salts (α-1,6-glucosidase [1]): negligibly affected

Pullulan
Relative activity (%) (α-1,6-glucosidase [3]): 100%
Km (α-1,6-glucosidase [4]): 0.14 mg/mL
Vmax (α-1,6-glucosidase [4]): 70.0 μmol/min/mg protein

[Cl-].[Cl-].[Co+2] [CoCl2]
Remaining activity (%) (α-1,6-glucosidase [1]): 87.7%

O.O.O.O.O.[Cd+2].[Cd+2].[Cl-].[Cl-].[Cl-].[Cl-] [CdCl2.21/2H2 O]
Remaining activity (%) (α-1,6-glucosidase [1]): 92.4%
Influence of metal salts (α-1,6-glucosidase [1]): negligibly affected
